From patent US20210171576A1, “METHODS FOR TREATING CANCER WITH ACYLDEPSIPEPTIDE ANALOGS” (priority 2018, published 2021) come the findings set out here.

The structures appear in SMILES notation. Where a SMILES comes first, the peptide text is derived from it. Bridges are numbered along the chain shown (N, C = ends). [ ]: non-standard residue; d: D form. The star is where a group is joined. Phe(3,5-F2) = N[C@@H](Cc1cc(F)cc(F)c1)C(=O)O; Heptenoyl(2E) = CCCC/C=C/C(=O)*; aThr = C[C@H](O)[C@H](N)C(=O)O; Pip = O=C(O)[C@@H]1CCCCN1

One data set deals with T1, HsCIpP (Homo sapiens, UniProt Q16740, P57S).
T1 construct: 2x(His6-thrombin)-SUMO (N, cleaved yes); made in house; host or cells: E. coli (SG1146 stated for HsClpP; 'a similar protocol' for HsClpX)
T1 sequence (Q16740 57-277 P57S): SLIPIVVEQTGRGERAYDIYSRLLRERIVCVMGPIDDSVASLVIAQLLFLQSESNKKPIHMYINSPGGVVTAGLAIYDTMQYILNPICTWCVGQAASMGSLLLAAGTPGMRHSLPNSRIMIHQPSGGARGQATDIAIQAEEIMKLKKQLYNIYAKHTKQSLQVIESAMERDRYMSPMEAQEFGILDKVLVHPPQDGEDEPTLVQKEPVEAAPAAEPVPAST
In words: Protease activity assay (casein-FITC degradation) with ADEP, independent of HsCIpX. Format: biochemical. To be noted: 3 μM HsCIpP, 10 μM casein-FITC, no HsCIpX; read-out: K0.5 (microscopic apparent dissociation constant), protease activity. The procedure: The protease activity of purified HsCIpP was assessed by monitoring the degradation of bovine milk casein labelled with fluorescein isothiocyanate (casein-FITC) (Sigma-Aldrich) in the presence of ADEP and/or purified HsCIpX. All reactions were carried out in 25 mM HEPES, pH 7.5, 35 mM KCl, 25 mM MgCl2, 0.03% Tween-20, 10% glycerol, and 1 mM DTT, supplemented with 16 mM creatine phosphate and 300 μM ATP. HsCIpP was used at 3 μM (final monomeric concentration) and casein-FITC was added at the final concentration of 10 μM. 13 U of creatine phosphokinase (Sigma-Aldrich) was also added for ATP regeneration. DMSO was present at 1% (v:v) final concentration in the experiments that involve the use of ADEP analogs. All reactions were carried out with 150 μL of the reaction mix per well in a 96-well black flat-bottom plate at 37° C. Degradation of casein-FITC and subsequent release of the free FITC moiety was monitored by fluorescence with λex=494 nm and λem=518 nm using the EnSpire 2300 Multilabel Reader set to perform a reading every 40 s with 20 flashes. A total of 100 readings were collected in each experiment. […]
The effect of ADEP in activating HsCIpP was assessed via the degradation of casein-FITC by HsCIpP independent of HsCIpX. […] Initial rates data were collected and analyzed using the Hill equation above to determine Vmax, h and K0.5 for each ADEP analog. […]

A further data set has as its system HEK293 T-REx WT cells. In words: 3D Structured Illumination Microscopy (3DSIM) of mitochondrial morphology. Format: cell-based, human. As to conditions: 2 μM. The procedure:
HEK293 T-REx WT and CLPP^'1/− cells were seeded on coverslips (Electron Microscopy Sciences) pre-coated with poly-D-lysine hydrobromide (Sigma-Aldrich) in a 12-well culture plate (Falcon). Cells were grown for 24 hours to allow adhesion, followed by treatment with 2 μM ADEP-41 or DMSO in the same manner as described in previous sections, for 24 or 72 hours. At these time points, the original media was removed, and cells were incubated for 30 minutes at 37° C., 5% CO2 with 200 nM MitoTracker Red CMXRos (Molecular Probes) in Opti-MEM™ Reduced Serum Medium (Gibco). Cells were then washed once with PBS and fixed with 4% (v/v) paraformaldehyde (Electron Microscopy Sciences) in PBS for 20 minutes at room temperature.
The fixed cells were then washed twice with PBS, permeabilized with 0.2% (v/v) Triton X-100 (BioShop) in PBS for 10 minutes at room temperature and incubated with 2 μg/mL Hoechst 33342 (Molecular Probes) in PBS for 10 minutes at room temperature to counterstain nuclei. Coverslips were then washed three times with PBS+0.05% (v/v) Tween-20 and mounted on microscope glass slides (VWR) using 0.5% (w/v) propyl gallate (Sigma-Aldrich) dissolved in glycerol as the mounting medium.
3DSIM data were collected on the ELYRA PS.1 super resolution microscope (Carl Zeiss Microscopy) using a 63× (1.4 NA) Plan-Apochromatic oil immersion objective (Carl Zeiss Microscopy) and a 1.6× Optovar. […]

Another data set relates to HeLa T-REx cells. In words: Cytotoxicity, SRB staining.
Data set [1] deals with undifferentiated SH-SY5Y cells. In words: Cytotoxicity, SRB staining.
Description: (§1) To assess the cytotoxicity of ADEP analogs, cells were seeded at 1×10^3 or 2×10^3 cells in 50 μL per well on sterile 96-well flat-bottom tissue culture plates (VWR). Growth media without any cells was included as a control. Cells were grown for at least 24 hours to allow proper adherence to the growth surface. Afterwards, ADEP analogs were serially diluted and introduced to the tissue cultures via fresh growth media at 50 μL per well. Inclusion of activators/DMSO brought the final DMSO concentration of the growth media up to a maximum of 0.5% (v:v). […] A total of four independent replicates were prepared for each cell line and for each growth condition used. Cells were grown in the presence of ADEP/DMSO for 72 hours.
(§2) To assess cell survival, live adherent cells were fixed with 10% (w:v) trichloroacetic acid (TCA) at 4° C. for 1-2 hours. The tissue culture plates were then rinsed with water to remove dead cells and cell debris and air-dried overnight. […] Absorbance at λ=510 nm (A510) was then measured using the EnSpire 2300 Multilabel Reader. […]
(§3) To determine the IC50 for the ADEP analogs, relative cell viability (RCV) values were calculated by normalizing the A510 readings in ADEP-containing sample to the DMSO-only control. […]
Data set [2] concerns HEK293 T-REx CLPP^−/− cells. In words: Cytotoxicity, SRB staining, 72 hours. As to conditions: CLPP^−/− cells lacking endogenous HsCIpP. A general note: Sulforhodamine B stains cellular protein and so reports cell mass.
Description: To assess the cytotoxicity of ADEP analogs, cells were seeded at 1×10^3 or 2×10^3 cells in 50 μL per well on sterile 96-well flat-bottom tissue culture plates (VWR). Growth media without any cells was included as a control. Cells were grown for at least 24 hours to allow proper adherence to the growth surface. Afterwards, ADEP analogs were serially diluted and introduced to the tissue cultures via fresh growth media at 50 μL per well. Inclusion of activators/DMSO brought the final DMSO concentration of the growth media up to a maximum of 0.5% (v:v). […] A total of four independent replicates were prepared for each cell line and for each growth condition used. […]
To assess cell survival, live adherent cells were fixed with 10% (w:v) trichloroacetic acid (TCA) at 4° C. for 1-2 hours. […] Absorbance at λ=510 nm (A510) was then measured using the EnSpire 2300 Multilabel Reader. […]
as §3
Assessment of cytotoxicity of ADEP-14 on human breast cancer cell lines (MDA-MB-231 WT, MDA-MB-231 CLPP-KD, MDA-MB-468, and MCF-7) and HEK cells (HEK293 T-Rex and HEK293 T-REx CLPP) were determined using the methods as described above in Example 1. […] Sulforhodamine B (SRB) staining method was used to quantify cell survival.
For data set [3], the system named is HEK293 T-REx+CLPPS153A-FLAG cells. In words: Cytotoxicity, SRB staining, with or without Dox.
Description: To assess the cytotoxicity of ADEP analogs, cells were seeded at 1×10^3 or 2×10^3 cells in 50 μL per well on sterile 96-well flat-bottom tissue culture plates (VWR). Growth media without any cells was included as a control. Cells were grown for at least 24 hours to allow proper adherence to the growth surface. Afterwards, ADEP analogs were serially diluted and introduced to the tissue cultures via fresh growth media at 50 μL per well. Inclusion of activators/DMSO brought the final DMSO concentration of the growth media up to a maximum of 0.5% (v:v). For experiments that involve overexpression of FLAG-tagged HsCIpP (WT or S153A mutant), Dox (Sigma-Aldrich) was also applied at 0.4 μg/mL (final concentration) as needed. A total of four independent replicates were prepared for each cell line and for each growth condition used. Cells were grown in the presence of ADEP/DMSO for 72 hours.
as §2, §3

Description for HeLa T-REx cells: as §1, §2, §3

In the case of `CCCC/C=C/C(=O)N[C@@H](Cc1cc(F)cc(F)c1)C(=O)N[C@@H]1C(=O)N2CCC[C@H]2C(=O)N2CCCC[C@H]2C(=O)N[C@@H](C)C(=O)N2CCC[C@H]2C(=O)O[C@H]1C` [ADEP-41] ({Heptenoyl(2E)}-[Phe(3,5-F2)][aThr]P[Pip]AP; ester 2-C), the Kd on HsCIpP was 120 nM. Moreover, the mitochondrial fragmentation result in the data set on HEK293 T-REx WT cells (24 hours) is on record as “clear signs of mitochondrial fragmentation”; with HEK293 T-REx WT cells (72 hours), “very significant”. Further, the “IC50 compared across cell lines” value with HeLa T-REx cells is “similar”; in data set [1], “slightly higher value”. Besides, the “sensitivity to ADEP-induced cytotoxicity” value in data set [2] is “resistant”. For the same molecule, in data set [3] (0.4 μg/mL Dox, inactive HsCIpP(S153A) overexpression), the “change in IC50” value is given as “no change in IC50”. Further, in data set [3] (without Dox), the “sensitivity relative to WT” value is reported as “equally sensitive”.
